Reference: paper PMC11211886 (Frontiers in Pharmacology, 2024)
Values joined by “and” are separate entries in the source; they are usually repeats but may differ in a detail not shown here. Equal values may be shown once. Values belong to the molecule of their own block, whether it stands above or below them.

Legend:
[1] = Excretion/mass balance of [14C] amdizalisib in BDI and BDC rats; format: in vivo, SD rat; details: for Cumulative recovery of radioactivity, Bile / Cumulative recovery of radioactivity, Cage washing / Cumulative recovery of radioactivity, Feces / Cumulative recovery of radioactivity, Total recovery / Cumulative recovery of radioactivity, Urine: PO 5 mg/100 μCi/kg; for unchanged drug recovered in bile / unchanged drug recovered in feces / unchanged drug recovered in urine: % of administered dose
Protocol: Rats were divided into seven groups according to the sampling time points, with six rats (male: female = 1: 1) in each group, except that Group 1 h used three male rats and Group 2 h and Group 72 h used three female rats, respectively. […] Plasma and tissue samples were collected at 0.5, 1, 6, 24, and 48 h after dosing for male rats and at 0.5, 2, 6, 24, 48, and 72 h after dosing for female rats. […] After blood collection, the rats were sacrificed, and 18 tissues, namely, brain, breast, skin, fat, testis, ovary, bladder, pancreas, skeletal muscle, heart, lung, kidney, liver, stomach, small intestine, colon, spleen, and spinal cord, were removed from the rats at designated time points. These tissues were washed with saline and dried with filter paper. Aliquots of tissues were accurately weighed and then homogenized in 50% (v/v) methanol/water (10 mL/1 g tissue). […] Twelve rats (207–277 g) were divided into the bile-duct cannulation (BDC) group and the bile-duct intact (BDI) group, with six rats (male: female = 1:1) in each group. […] Urine and feces were collected at pre-dose (0) and 24 h through 168 h post-dose (the first 24 h interval split into 0–8 and 8–24 h for urine) for BDI rats. For BDC rats, urine and feces were collected at pre-dose (0) and 72 h post-dose (the first 24 h interval split into 0–8 and 8–24 h for urine), and bile was collected at pre-dose (0), 0–4, 4–8, 8–24, 24–48, and 48–72 h post-dose. Cage-washing fluids were collected at 24 h intervals until the last sampling time point for both groups. Another BDI rat was orally administered a blank vehicle (0.5% CMC-Na, 0.5 g/100 mL), and urine and feces were collected 24 h post-dose. The weight of the collected samples was recorded. Samples were stored in a −20°C freezer until analysis.
For the determination of drug-derived radioactivity in the excretion study in SD rats, urine (0.1 g), bile (0.025 g), and cage wash samples (1 g) were mixed well with scintillation solution (5 mL for urine and cage wash samples; 10 mL for bile samples) and directly analyzed by a liquid scintillation counter (LSC, Perkin Elmer, Waltham, MA, United States). An appropriate amount of isopropanol: water (1:1, v/v) was added to the feces samples and thoroughly homogenized. Pooled fecal homogenate (0.3 g) was combusted in a Sample Oxidizer 501 (RJ Harvey Instrument, Tappan, NY, USA), and the generated ^14CO2 was trapped in a 15 mL scintillation solution and further analyzed for radioactivity by LSC using a Tri-Carb 3110 TR counter (Perkin Elmer, Waltham, MA, United States). The radioactive concentrations of urine, bile, feces, and cage washings were calculated with the counted disintegration per minute (DPM). The percentage of administered dose recovered (% dose recovered) was calculated using the following equation: % dose recovered=Total radioactivity DPM in sample/ radioactivity DPM in dosing formulation×100.

OAT3 = molecular target: T1, OAT3 (Homo sapiens, UniProt Q8TCC7); assay: OAT3 inhibition, estrone 3-sulfate uptake in transfected HEK293 cells
T1 sequence (Q8TCC7 1-542): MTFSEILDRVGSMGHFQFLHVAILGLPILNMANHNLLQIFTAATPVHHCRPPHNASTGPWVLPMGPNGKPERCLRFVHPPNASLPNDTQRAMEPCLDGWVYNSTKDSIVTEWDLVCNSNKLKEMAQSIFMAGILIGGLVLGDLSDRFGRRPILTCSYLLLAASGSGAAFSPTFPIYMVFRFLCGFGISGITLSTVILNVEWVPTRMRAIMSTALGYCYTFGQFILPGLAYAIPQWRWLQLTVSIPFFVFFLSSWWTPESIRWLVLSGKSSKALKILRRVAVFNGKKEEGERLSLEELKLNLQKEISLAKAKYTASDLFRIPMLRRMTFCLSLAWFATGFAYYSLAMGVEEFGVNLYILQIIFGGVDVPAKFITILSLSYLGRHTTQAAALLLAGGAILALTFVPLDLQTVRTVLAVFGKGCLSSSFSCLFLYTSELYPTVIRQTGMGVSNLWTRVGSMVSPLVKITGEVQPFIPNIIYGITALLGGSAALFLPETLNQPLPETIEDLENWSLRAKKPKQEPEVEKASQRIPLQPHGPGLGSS
Protocol: (§1) The pre-incubation solutions were removed, and incubation solutions containing the inhibitors and probe substrates (or transport buffer containing an equal volume of vehicle control and probe substrates) were added and incubated at 37°C for 2 min (5 min for OATP1B3). The probe substrate for OAT1 was 4-aminohippuric acid (10 μM), for OAT3 was estrone 3-sulfate (10 μM), for OCT2 was metformin (100 μM), for OATP1B1 was β-estradiol 17-(β-D-glucuronide) (5 μM), for OATP1B3 was β-estradiol 17-(β-D-glucuronide) (10 μM), and for MATE1 and MATE2-K was tetraethylammonium (10 μM). After incubation, cells were washed three times with ice-cold transport buffer (25 mM HEPES, pH 7.4, pH 8.0 for overexpressing MATE1 and MATE2-K HEK293 cells) and lysed in distilled water. The concentrations of probe substrates were determined by LC-MS/MS, and a BCA Kit (Solarbio ®Life Sciences, Beijing, China) was used to determine the protein content in the cell lysate.
(§2) where C is the concentration of the drug in the cell lysate (nM), P is the protein concentration of the cell lysate (mg/mL), and T is the incubation time (minute). Uptake ratetest compound is the uptake rate of the substrate in the presence of the test compound. Uptake ratevehicle control is the uptake rate of the substrate in the presence of the vehicle control. Uptake ratepassive is the uptake rate of the substrate in the presence of the positive inhibitor at the top test concentration.

MATE1 = molecular target: T2, MATE1 (Homo sapiens, UniProt Q96FL8); assay: MATE1 inhibition, tetraethylammonium uptake in transfected HEK293 cells
T2 sequence (Q96FL8 1-570): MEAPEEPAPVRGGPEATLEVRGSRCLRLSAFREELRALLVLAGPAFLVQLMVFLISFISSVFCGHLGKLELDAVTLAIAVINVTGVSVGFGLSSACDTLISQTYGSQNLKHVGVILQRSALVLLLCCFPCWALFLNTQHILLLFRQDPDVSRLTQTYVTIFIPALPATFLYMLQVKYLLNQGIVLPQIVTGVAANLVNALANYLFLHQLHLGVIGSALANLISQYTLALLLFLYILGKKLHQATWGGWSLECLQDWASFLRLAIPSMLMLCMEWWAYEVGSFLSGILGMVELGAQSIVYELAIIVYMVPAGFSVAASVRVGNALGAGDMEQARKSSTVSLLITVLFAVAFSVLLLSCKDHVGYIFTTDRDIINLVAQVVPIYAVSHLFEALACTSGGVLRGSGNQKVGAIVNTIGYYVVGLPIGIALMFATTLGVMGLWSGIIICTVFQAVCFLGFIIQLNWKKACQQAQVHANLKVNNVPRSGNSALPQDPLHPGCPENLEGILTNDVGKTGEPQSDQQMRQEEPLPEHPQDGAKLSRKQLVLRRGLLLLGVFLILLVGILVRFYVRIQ
Protocol: as §1, §2

MATE2-K = MATE2-K (Homo sapiens, UniProt Q86VL8); assay: MATE2-K inhibition, tetraethylammonium uptake in transfected HEK293 cells
Protocol: as §1, §2

[2] = BDC rat, 0–72 h, female (n = 3)
[3] = BDC rat, 0–72 h, male and female (n = 6)
[4] = BDI rat, 0–168 h, female (n = 3)
[5] = BDI rat, 0–168 h, male and female (n = 6)

Chain of MATE2-K (Q86VL8 1-566 isoform Q86VL8-3): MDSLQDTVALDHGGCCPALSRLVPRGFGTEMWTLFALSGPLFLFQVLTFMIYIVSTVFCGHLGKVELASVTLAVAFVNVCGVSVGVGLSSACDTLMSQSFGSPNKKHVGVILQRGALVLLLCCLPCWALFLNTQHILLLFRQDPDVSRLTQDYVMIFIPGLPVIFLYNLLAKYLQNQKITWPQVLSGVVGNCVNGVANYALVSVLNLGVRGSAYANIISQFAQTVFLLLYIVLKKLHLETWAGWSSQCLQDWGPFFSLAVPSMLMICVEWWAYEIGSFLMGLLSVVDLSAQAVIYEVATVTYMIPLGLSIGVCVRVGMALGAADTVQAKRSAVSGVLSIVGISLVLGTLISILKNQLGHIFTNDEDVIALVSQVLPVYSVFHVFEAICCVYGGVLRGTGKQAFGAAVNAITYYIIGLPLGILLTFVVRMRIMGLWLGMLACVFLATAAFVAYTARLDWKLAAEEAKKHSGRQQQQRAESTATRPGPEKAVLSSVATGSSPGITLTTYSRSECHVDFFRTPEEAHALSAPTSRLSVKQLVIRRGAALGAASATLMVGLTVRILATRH

Cumulative recovery of radioactivity, Bile [1, 2]: 49.81 ± 2.07%
Cumulative recovery of radioactivity, Cage washing [1, 2]: 2.24 ± 1.90%
Cumulative recovery of radioactivity, Feces [1, 2]: 19.81 ± 4.98%
Cumulative recovery of radioactivity, Total recovery [1, 2]: 90.31 ± 0.91%
Cumulative recovery of radioactivity, Urine [1, 2]: 18.45 ± 4.01%
Cumulative recovery of radioactivity, Bile ([1]; BDC rat, 0–72 h, male (n = 3)): 58.17 ± 4.68%
Cumulative recovery of radioactivity, Cage washing ([1]; BDC rat, 0–72 h, male (n = 3)): 0.89 ± 0.37%
Cumulative recovery of radioactivity, Feces ([1]; BDC rat, 0–72 h, male (n = 3)): 8.98 ± 2.64%
Cumulative recovery of radioactivity, Total recovery ([1]; BDC rat, 0–72 h, male (n = 3)): 91.99 ± 1.88%
Cumulative recovery of radioactivity, Urine ([1]; BDC rat, 0–72 h, male (n = 3)): 23.96 ± 8.70%
Cumulative recovery of radioactivity, Bile [1, 3]: 53.99 ± 5.61%
Cumulative recovery of radioactivity, Cage washing [1, 3]: 1.57 ± 1.43%
Cumulative recovery of radioactivity, Feces [1, 3]: 14.40 ± 6.92%
Cumulative recovery of radioactivity, Total recovery [1, 3]: 91.15% and 91.15 ± 1.61%
Cumulative recovery of radioactivity, Urine [1, 3]: 21.20 ± 6.77%
fraction of the oral dose absorbed (bile + urine radioactivity) ([1]; BDC rats, 0–72 h, PO 5 mg/kg): at least 75.19%
Cumulative recovery of radioactivity, Cage washing [1, 4]: 4.72 ± 2.41%
Cumulative recovery of radioactivity, Feces [1, 4]: 71.15 ± 0.22%
Cumulative recovery of radioactivity, Total recovery [1, 4]: 91.59 ± 0.97%
Cumulative recovery of radioactivity, Urine [1, 4]: 15.72 ± 2.62%
Cumulative recovery of radioactivity, Cage washing ([1]; BDI rat, 0–168 h, male (n = 3)): 2.84 ± 0.17%
Cumulative recovery of radioactivity, Feces ([1]; BDI rat, 0–168 h, male (n = 3)): 63.14 ± 3.98%
Cumulative recovery of radioactivity, Total recovery ([1]; BDI rat, 0–168 h, male (n = 3)): 90.69 ± 1.16%
Cumulative recovery of radioactivity, Urine ([1]; BDI rat, 0–168 h, male (n = 3)): 24.71 ± 4.46%
Cumulative recovery of radioactivity, Cage washing [1, 5]: 3.78 ± 1.84%
Cumulative recovery of radioactivity, Feces [1, 5]: 67.15 ± 5.06%
Cumulative recovery of radioactivity, Total recovery [1, 5]: 91.14% and 91.14 ± 1.07%
Cumulative recovery of radioactivity, Urine [1, 5]: 20.21 ± 5.91%
total radioactivity recovered ([1]; BDI rats, within 48 h post-dose): over 80%
unchanged drug recovered in bile ([1]; female rats): 4.70%
unchanged drug recovered in feces ([1]; female rats): 29.80%
unchanged drug recovered in urine ([1]; female rats): 0.03%
unchanged drug recovered in bile ([1]; male rats): 2.69%
unchanged drug recovered in feces ([1]; male rats): 23.20%
unchanged drug recovered in urine ([1]; male rats): < 0.01%
Molecule: [^14C] amdizalisib

Percentage transported (OAT3; OAT3, compound 100 μM): 0.00%
Uptake rate (OAT3; OAT3, compound 100 μM): 19.5±2.26 pmol/mg protein/min
inhibition at 2 min, 100 µM (OAT3; human, pH 7.4): 100%
Molecule: CCCN(CCC)S(=O)(=O)c1ccc(C(=O)O)cc1 [Probenecid, reference compound]

IC50 (MATE1): 12.5 nM
Percentage transported (MATE1; MATE1, compound 1 μM): 0.00%
Uptake rate (MATE1; MATE1, compound 1 μM): 12.5±2.43 pmol/mg protein/min
inhibition at 2 min, 1 µM (MATE1; human, pH 8): 100%
IC50 (MATE2-K): 13.6 nM
Percentage transported (MATE2-K; MATE2-K, compound 1 μM): 0.00%
Uptake rate (MATE2-K; MATE2-K, compound 1 μM): 7.55±1.58 pmol/mg protein/min
inhibition at 2 min, 1 µM (MATE2-K; human, pH 8): 100%
Molecule: CCc1nc(N)nc(N)c1-c1ccc(Cl)cc1 [Pyrimethamine, reference compound]
